# Assay results reported in US6110962A, “11-aryl-benzo[B]naphtho[2,3-D]furans and 11-aryl-benzo[B]naphtho[2,3-D]thiophenes useful in the treatment of insulin resistance and hyperglycemia” (American Home Products Corporation, priority 1999, dated 2000).
# pIC50: −log10 of the molar value. Like-named read-outs stand apart in the source and are kept apart here.
# Key:
# [1] = tested on: rat hepatic microsomal PTPases; details: PTPase activity, compound at 50 μM
# Human recombinant PTP1B = biological target: T1, Human recombinant PTP1B (Homo sapiens, UniProt P18031); type: biochemical; details: read-out: IC50
# T1 construct: made in house
# T1 sequence (P18031 1-435): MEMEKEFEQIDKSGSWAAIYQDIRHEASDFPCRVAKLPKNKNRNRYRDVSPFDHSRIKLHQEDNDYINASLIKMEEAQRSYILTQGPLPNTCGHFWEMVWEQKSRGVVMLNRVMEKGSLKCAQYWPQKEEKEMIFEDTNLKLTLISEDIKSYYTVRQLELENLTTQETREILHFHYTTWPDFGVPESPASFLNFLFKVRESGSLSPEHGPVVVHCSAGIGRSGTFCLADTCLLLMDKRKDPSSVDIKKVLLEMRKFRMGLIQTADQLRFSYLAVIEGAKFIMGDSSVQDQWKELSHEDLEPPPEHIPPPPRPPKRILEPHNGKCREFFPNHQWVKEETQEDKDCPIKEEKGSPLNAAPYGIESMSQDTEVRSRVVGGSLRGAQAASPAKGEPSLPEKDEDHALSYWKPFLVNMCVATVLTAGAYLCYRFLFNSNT
# diabetic (ob/ob) mice = experiment: Blood glucose lowering activity in diabetic (ob/ob) mice; type: in vivo, mouse; details: Mus musculus, po, ob/ob mice
# Description: The blood glucose lowering activity of representative compounds of this invention were determined in an in vivo standard procedure using diabetic (ob/ob) mice. The procedures used and results obtained are briefly described below. The non-insulin dependent diabetic (NIDDM) syndrome can be typically characterizes by obesity, hyperglycemia, abnormal insulin secretion, hyperinsulinemia and insulin resistance. […] In each test procedure, mice [Male or female ob/ob (C57 B1/6J) and their lean litermates (ob+ or +/+, Jackson Laboratories) ages 2 to 5 months (10 to 65 g)] of a similar age were randomized according to body weight into 4 groups of 10 mice. The mice were housed 5 per cage and are maintained on normal rodent chow with water ad libitum. Mice received test compound daily by gavage (suspended in 0.5 ml of 0.5% methyl cellulose); dissolved in the drinking water; or admixed in the diet. […] The dose is calculated based on the fed weekly body weight and is expressed as active moiety. […] Control mice received vehicle only. On the morning of Day 4, 7 or 14 two drops of blood (approximetly 50 ul) were collected into sodium fluoride containing tubes either from the tail vein or after decapitation. For those studies in which the compound was administered daily by gavage the blood samples were collected two hours after compound administration. The plasma was isolated by centrifugation and the concentration of glucose is measured enzymatically on an Abbott V. P. Analyzer. […] Analysis of variance followed by Dunett's Comparison Test (one-tailed) are used to estimate the significant difference between the plasma glucose values from the control group and the individual compound treated groups (CMS SAS Release 5.18).
# [2] = 96 h, plasma glucose Day 4, 7 or 14, read-out: % Change Glucose from Vehicle
# [3] = read-out: % Change Insulin from Vehicle
SMILES,% Change from Control [1] [%],pIC50 (Human recombinant PTP1B),change in vivo at 100 mg/kg (diabetic (ob/ob) mice; [2]) [%],change in vivo at 100 mg/kg (diabetic (ob/ob) mice; [3]) [%],change in vivo at 10 mg/kg (diabetic (ob/ob) mice; [2]) [%],change in vivo at 10 mg/kg (diabetic (ob/ob) mice; [3]) [%],change in vivo at 75 mg/kg (diabetic (ob/ob) mice; [2]) [%],change in vivo at 75 mg/kg (diabetic (ob/ob) mice; [3]) [%],change in vivo at 25 mg/kg (diabetic (ob/ob) mice; [2]) [%],change in vivo at 25 mg/kg (diabetic (ob/ob) mice; [3]) [%]
"O=C(O)[C@@H](Cc1ccccc1)Oc1ccc(-c2c3ccccc3cc3sc4ccccc4c23)cc1 [Example 117, (R)-2-[4-(Benzo[b]naphtho[2,3-d]thiophen-11-yl)-phenoxy]-3-phenyl-propionicacid]",-79.06,5.82,-14.5,-83.8,,,,,,
"C[C@@H](Oc1c(Br)cc(-c2c3ccccc3c(Br)c3sc4ccccc4c23)cc1Br)C(=O)O [Example 121, (R)-2-[2,6-Dibromo-4-(6-bromo-benzo[b]naphtho[2,3-d]thiophen-11-yl)-phenoxy]-propionic acid]",-74.70,6.74,-54.6,-87.8,1.37,-41.8,,,,
"CCCCC(Oc1c(Br)cc(-c2c3ccccc3c(Br)c3sc4ccccc4c23)cc1Br)C(=O)O (stereo not shown) [Example 123, 2-[2,6-Dibromo-4-(6-bromo-benzo[b]naphtho[2,3-d]thiophen-11-yl)-phenoxy]-hexanoic acid]",-87.44,7.09,,,,,-24,-40.9,,
"COc1c2ccccc2c(-c2cc(Br)c(O[C@H](Cc3ccccc3)C(=O)O)c(Br)c2)c2c1sc1ccccc12 [Example 126, (R)-2-[2,6-Dibromo-4-(6-methoxy-benzo[b]naphtho[2,3-d]thiophen-11-yl)-phenoxy]-3-phenyl-propionic acid]",-78.77,6.53,,,,,,,-28.6,-62.4
"C[C@@H](Oc1c(Br)cc(-c2c3ccccc3c(I)c3sc4ccccc4c23)cc1Br)C(=O)O [Example 135, (R)-2-[2,6-Dibromo-4-(6-iodo-benzo[b]naphtho[2,3-d]thiophen-11-yl]-phenoxy]-propionic acid]",-59.75,6.68,,,,,,,-15.8,-57.4
"Cc1cc(-c2c3ccccc3c(C)c3sc4ccccc4c23)cc(C)c1O[C@H](Cc1ccccc1)C(=O)O [Example 138, (R)-2-[2,6-Dimethyl-4-(6-methyl-benzo[b]naphtho[2,3-d]thiophen-11-yl)-phenoxy]-3-phenyl-propionic acid]",-69.13,6.20,,,,,,,-13.8,-91.9
O=C(O)[C@@H](Cc1ccccc1)Oc1c(Br)cc(-c2c3c(c(Br)c4ccccc24)S(=O)(=O)c2ccccc2-3)cc1Br [Example 189],-89.32,5.86,-46.8,11,,,,,,
"COc1cc(-c2c3ccccc3c(Br)c3sc4ccccc4c23)cc(Br)c1O[C@H](Cc1ccccc1)C(=O)O [Example 194, (R)-2-[2-Bromo-4-(6-bromo-benzo[b]naphtho[2,3-d]thiophen-11-yl)-6-methoxy-phenoxy]-3-phenyl-propionic acid]",-79.35,6.66,,,,,,,-32,
"O=C(O)[C@@H](Cc1ccccc1)Oc1c(F)ccc(-c2c3ccccc3c(Br)c3sc4ccccc4c23)c1F [Example 203, (R)-2-[]3-(6-Bromo-benzo[b]naphtho[2,3-d]thiophen11-yl)-2.6-difluoro-phenoxyl-3-phenyl-propionic acid]",-86.47,6.40,-16.1,-91,,,,,,
"O=C(O)COc1c(Br)cc(-c2c3ccccc3c(Br)c3oc4ccccc4c23)cc1Br [Example 215, [2,6-Dibromo-4-(6-bromo-benzo[b]naphtho[2,3-d]furan-11-yl)-phenoxy]-acetic acid]",-80.93,6.31,-39.4,-4.66,,,,,,

# Now those with a higher pIC50 (Human recombinant PTP1B), led by results:
% Change from Control [1] [%],pIC50 (Human recombinant PTP1B),SMILES,change in vivo at 100 mg/kg (diabetic (ob/ob) mice; [2]) [%],change in vivo at 100 mg/kg (diabetic (ob/ob) mice; [3]) [%],change in vivo at 10 mg/kg (diabetic (ob/ob) mice; [2]) [%],change in vivo at 10 mg/kg (diabetic (ob/ob) mice; [3]) [%],change in vivo at 75 mg/kg (diabetic (ob/ob) mice; [2]) [%],change in vivo at 75 mg/kg (diabetic (ob/ob) mice; [3]) [%],change in vivo at 25 mg/kg (diabetic (ob/ob) mice; [2]) [%],change in vivo at 25 mg/kg (diabetic (ob/ob) mice; [3]) [%]
-37.08,7.19,"O=C(O)[C@@H](Cc1ccccc1)Oc1c(Br)cc(-c2c3ccccc3c(Cl)c3sc4ccccc4c23)cc1Br [Example 127, (R)-2-{2,6-Dibromo-4-(6-chloro-benzo[b]naphtho[2,3-d]thiophen-11-yl)-phenoxy}-3-phenyl-propionic acid]",,,,,,,-18.8,-76.5
-50.94,7.60,"O=C(O)[C@@H](Cc1ccccc1)Oc1c(Br)cc(-c2c3ccccc3c(Sc3ccccc3)c3sc4ccccc4c23)cc1Br [Example 128, (R)-2-[2,6-Dibromo-4-(6-phenylsulfanyl-benzo[b]naphtho[2,3-d]thiophen-11-yl)-phenoxy]-3-phenyl-propionic acid]",,,,,,,3.1,-38.8
-59.03,7.34,"C[C@@H](Oc1c(Br)cc(-c2c3ccccc3c(Sc3ccccc3)c3sc4ccccc4c23)cc1Br)C(=O)O [Example 129, (R)-2-[2,6-Dibromo-4-(6-phenylsulfanyl-benzo[b]naphthor[2,3-d]thiophen-11-yl)-phenoxy]-propionic acid]",,,,,,,-14.9,-54.6
-63.42,7.30,O=C(O)[C@@H](Cc1ccccc1)Oc1c(Br)cc(-c2c3ccccc3c(I)c3sc4ccccc4c23)cc1Br [Example 136],,,,,,,-23.6,-52
-64.89,7.21,"CC(C)c1cc(-c2c3ccccc3c(Br)c3sc4ccccc4c23)cc(C(C)C)c1O[C@H](Cc1ccccc1)C(=O)O [Example 139, (2R)-2-[4-(6-Bromo-benzo[b]naphtho[2,3-d]thiophen-11-yl)-2,6-diisopropyl-phenoxy)-3-phenyl-propionic acid]",,,,,,,-18.5,-22
-71.95,7.19,"O=C(O)[C@@H](CCN1C(=O)c2ccccc2C1=O)Oc1c(Br)cc(-c2c3ccccc3cc3sc4ccccc4c23)cc1Br [Example 146, (R)-2-(4-Benzo[b]naphtho[2,3-d]thiophen-11-yl-2,6-dibromo-phenoxy)-4-(1,3-dioxo-1 , 3-dihydro-isoindol-2-yl)-butyric acid]",-45.8,-56.2,,,,,,
-82.25,7.25,"O=C(O)C(Cc1ccc(F)cc1)Oc1c(Br)cc(-c2c3ccccc3c(Br)c3sc4ccccc4c23)cc1Br (stereo not shown) [Example 155, 2-[2,6-Dibromo-4-(6-bromo-benzo[b]naphtho[2,3-d]thiophen-11-yl)-phenoxy]-3-(4-fluoro-phenyl)-propionic acid]",,,,,,,-28.9,-63.2
-70.95,7.12,"Brc1cc(-c2c3ccccc3c(Br)c3sc4ccccc4c23)cc(Br)c1O[C@H](Cc1ccccc1)c1nnn[nH]1 [Example 172, (R)-5-{1-[2,6-Dibromo-4-(6-bromo-benzo[b]naphtho[2,3-d]thiophen-11-yl)-phenoxy]-2-phenyl-ethyl}-1 H-tetrazole]",5.62,-52,,,,,,
